The source of these data is ChEMBL document CHEMBL1141415, “Design, synthesis, and crystal structure of hydroxyethyl secondary amine-based peptidomimetic inhibitors of human beta-secretase” (J Med Chem, 2007).

Test [1] deals with T1, Beta-secretase (BACE) (Homo sapiens, UniProt Q9Y5Z0+P56817). Kind of test: Inhibition of beta amyloid production in human HEK293 cells. The test is classed as functional, cell-based.
In a further test the target is Beta-secretase 1 (Homo sapiens, UniProt P56817). Kind of test: Inhibition of human BACE1 by MBPC125Swe assay. The class given is cell-based.
Chain of Beta-secretase 1 (P56817 whole entry): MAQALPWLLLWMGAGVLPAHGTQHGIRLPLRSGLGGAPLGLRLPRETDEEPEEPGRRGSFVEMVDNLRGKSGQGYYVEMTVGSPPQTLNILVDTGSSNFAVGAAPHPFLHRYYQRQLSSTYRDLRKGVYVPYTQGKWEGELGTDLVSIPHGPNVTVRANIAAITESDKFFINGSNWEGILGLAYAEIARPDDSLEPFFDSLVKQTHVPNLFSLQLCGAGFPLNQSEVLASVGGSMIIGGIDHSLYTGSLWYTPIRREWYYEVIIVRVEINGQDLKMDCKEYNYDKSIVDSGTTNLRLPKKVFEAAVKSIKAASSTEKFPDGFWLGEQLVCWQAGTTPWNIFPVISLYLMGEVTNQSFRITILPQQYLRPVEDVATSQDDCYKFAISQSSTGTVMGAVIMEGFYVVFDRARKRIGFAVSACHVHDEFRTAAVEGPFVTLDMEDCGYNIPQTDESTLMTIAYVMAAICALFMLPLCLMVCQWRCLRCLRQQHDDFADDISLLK
Test [2] addresses T1, Beta-secretase (BACE). Kind of test: Ratio of EC50 for beta amyloid to IC50 for BACE1. The test is classed as functional.

T1 sequence (P56817 whole entry, looked up): as the sequence (P56817 whole entry) above
T1 sequence (Q9Y5Z0 whole entry, looked up): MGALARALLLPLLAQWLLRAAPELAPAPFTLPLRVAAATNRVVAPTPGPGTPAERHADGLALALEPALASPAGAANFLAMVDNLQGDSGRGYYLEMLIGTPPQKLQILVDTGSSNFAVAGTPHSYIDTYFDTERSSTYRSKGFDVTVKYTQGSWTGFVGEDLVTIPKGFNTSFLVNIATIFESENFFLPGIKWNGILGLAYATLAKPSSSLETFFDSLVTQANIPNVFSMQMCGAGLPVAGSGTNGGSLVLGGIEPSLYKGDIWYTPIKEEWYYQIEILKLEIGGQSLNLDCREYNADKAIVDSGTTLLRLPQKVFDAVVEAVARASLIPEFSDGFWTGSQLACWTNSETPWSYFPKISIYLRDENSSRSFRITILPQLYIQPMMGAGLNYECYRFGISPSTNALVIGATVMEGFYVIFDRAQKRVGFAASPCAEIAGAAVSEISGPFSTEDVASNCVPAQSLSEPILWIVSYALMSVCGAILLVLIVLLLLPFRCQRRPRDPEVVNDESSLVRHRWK

The compound `CCCN(CCC)C(=O)c1cc(C)cc(C(=O)N[C@@H](Cc2cc(F)cc(F)c2)[C@H](O)CN[C@@H](C)C(=O)NCC(C)C)c1` showed an EC50 on Beta-secretase (BACE) [1] of 80 nM. The IC50 against Beta-secretase 1 was 70 nM.

`CCCN(CCC)C(=O)c1cccc(C(=O)N[C@@H](Cc2cc(F)cc(F)c2)[C@H](O)CN[C@@H](C)C(=O)NCC(C)C)c1`: at Beta-secretase (BACE) [2], the Ratio is 1. The EC50 at Beta-secretase (BACE) [1] came to 230 nM. This compound gave an IC50 at Beta-secretase 1 of 130 nM.

Turning to `CCCN(CCC)C(=O)c1cc(C)cc(C(=O)N[C@@H](Cc2cc(F)cc(F)c2)[C@H](O)CNC(C)(C)C(=O)NCC(C)C)c1`, the EC50 on Beta-secretase (BACE) [1] worked out at 230 nM.

Take `CCCN(CCC)C(=O)c1cc(C)cc(C(=O)N[C@@H](Cc2cc(F)cc(F)c2)[C@H](O)CNCc2ccccc2)c1`: on Beta-secretase (BACE) [2], the Ratio was 0.3. Besides, the EC50 on Beta-secretase (BACE) [1] worked out at 40 nM. In addition, on Beta-secretase 1, the IC50 was determined as 130 nM.

At Beta-secretase (BACE) [1], `CCCN(CCC)C(=O)c1cccc(C(=O)N[C@@H](Cc2cc(F)cc(F)c2)[C@H](O)CN[C@H](C)C(=O)NCC(C)C)c1` showed an EC50 of 600 nM. Further, the IC50 on Beta-secretase 1 is 500 nM.

The EC50 is the midpoint of the concentration-response curve. A low value points to an effect from little substance. Broadly, the IC50 is the concentration that inhibits the measured activity by half. Higher therefore signals weaker potency in that assay.
